Calls of active or inactive are those of the source. How the calls were made is not given here.
Test: M. tuberculosis growth inhibition in 7H9, dose response, 7H9 media, purified and synthesized samples, set 3 (AID 504646)
Conditions: Mycobacterium tuberculosis growth in 7H9 media; at 25 µM (top of the series)

SMILES	growth inhibition
C=CCn1c(SCC(=O)Nc2cccc3ccccc23)nc(O)c(CC)c1=O	26.9% (inactive)
O=C(CSc1ncccn1)NC1CCCCC1	-5.77% (inactive)
Cc1cc(=O)[nH]c(=S)[nH]1	-1.28% (inactive)
Cc1nc(SCC(=O)N(C)c2ccccc2)[nH]c(=O)c1C	-13.6% (inactive)
CC(NC(=O)CSc1nc2ccccc2c(=O)[nH]1)c1ccccc1 (stereo unspecified)	-9.84% (inactive)
CC1CCN(C(=O)CSc2nc3ccccc3c(=O)[nH]2)CC1	2.14% (inactive)
O=c1[nH]c(=S)[nH]c2ccccc12	-8.06% (inactive)
Cc1[nH]c2ccccc2c1C(=O)COC(=O)c1ccc([N+](=O)[O-])s1	-5.99% (inactive)
CCSc1nc(C)c(C)c(=O)[nH]1	1.07% (inactive)
Cc1ccc(NC(=O)CSc2nc(N)cc(=O)[nH]2)cc1Cl	2.55% (inactive)
Cc1cccc(N2CCN(C(=O)c3ccc(CNc4c(N5CCC(C)CC5)c(=O)c4=O)cc3)CC2C)c1 (stereo unspecified)	-1.5% (inactive)
COc1ccc(-c2noc(CSc3nc(N)c(-c4ccccc4)c(=O)[nH]3)n2)cc1OC	-5.09% (inactive)
CN(C(=O)CSc1nc2ccccc2c(=O)[nH]1)C1CCCCC1	-6.94% (inactive)
CCSc1nc2ccccc2c(=O)[nH]1	-4.76% (inactive)
CCCc1cc(=O)[nH]c(SCC(=O)Nc2cc3c(cc2C(C)=O)OCO3)n1	3.07% (inactive)
CCOC(=O)CSc1nc(C)c(C)c(=O)[nH]1	-7.78% (inactive)
CCOc1ccc(NC(=O)CSc2nc(N)c(-c3ccccc3)c(=O)[nH]2)cc1	0.19% (inactive)
Cc1cc(=O)[nH]c(SCC(=O)Nc2ncc(S(=O)(=O)c3ccc([N+](=O)[O-])cc3)s2)n1	-1.38% (inactive)
Cc1ccc(NC(=O)CSc2nc(N)c(-c3ccccc3)c(=O)[nH]2)cc1Cl	-2.34% (inactive)
CCC(Sc1nc(=O)cc(N)n1-c1ccccc1)C(=O)Nc1cc(C)on1 (stereo unspecified)	-3.83% (inactive)
CCOC(=O)N1CCC(Nc2c(N3CCN(c4cccc(C(F)(F)F)c4)CC3)c(=O)c2=O)CC1	-1.75% (inactive)

— PubChem BioAssay AID504646 (Southern Research Specialized Biocontainment Screening …, 2011)
